Values quoted from earlier work as cited in PubChem BioAssay AID1259409 (Chemical Carcinogenesis Research Information System (CCRIS), 2018).

System: rodent chemically induced tumor inhibition, incidence and multiplicity
Assay: CCRIS tumor inhibitor studies
Conditions: Dose [Inhibitor]: 0

CC(C)=CCC/C(C)=C/C=C/C(C)=C/C=C/C(C)=C/C=C/C=C(C)/C=C/C=C(C)/C=C/C=C(\C)CCC=C(C)C
tumour outcome (control, treated, inhibition, significance) (Carcinogen: 7,12-DIMETHYLBENZ[A]ANTHRACENE, 57-97-6, 2.5 MG/KG ON DAYS ALTERNATE TO CARCINOGEN APPLICATION FOR STUDY DURATION (STUDY DURATION: 14 WK), Route [Inhibitor]: GAVAGE, Species: HAMSTER, Strain/Sex: SYRIAN/MALE, Target Tissue: Type of Lesion: BUCCAL POUCH: SQUAMOUS CELL CARCINOMA, Dose [Carcinogen]: 0.5% IN LIQUID PARAFFIN ON RIGHT BUCCAL POUCH 3X/WK FOR 14 WK, Promoter: NONE USED): 6/6 (100%), 0/6 (0%), 100%, not calculated | tumour outcome (control, treated, inhibition, significance) (Carcinogen: DIETHYLNITROSAMINE: 55-18-5, N-METHYL-N-NITROSOUREA, 684-93-5, 1,2-DIMETHYLHYDRAZINE, 540-73-8, Carcinogen: DIETHYLNITROSAMINE: 55-18-5, N-METHYL-N-NITROSOUREA, 684-93-5, 1,2-DIMETHYLHYDRAZINE, 540-73-8, 25 PPM IN DIET FOR 21 WK BEGINNING 2 WK POST CARCINOGEN TREATMENT (STUDY DURATION: 213 D), Route [Inhibitor]: ORAL, Species: MOUSE, Strain/Sex: B6C3F1/FEMALE, Target Tissue: Type of Lesion: LUNG: ADENOMA, Dose [Carcinogen]: 10 MG/KG BW DEN TWICE ON DAYS 1 AND 21, 120 PPM MNU IN DRINKING WATER DURING WKS 4-9, 20 MG/KG BW DMH 2/WK DURING WKS 4-, Dose [Carcinogen]: 10 MG/KG BW DEN TWICE ON DAYS 1 AND 21, 120 PPM MNU IN DRINKING WATER DURING WKS 4-9, 20 MG/KG BW DMH 2/WK DURING WKS 4-): 6/16 (38%), 3/16 (19%), 50%, not significant | outcome (Carcinogen: DIETHYLNITROSAMINE: 55-18-5, N-METHYL-N-NITROSOUREA, 684-93-5, 1,2-DIMETHYLHYDRAZINE, 540-73-8, Carcinogen: DIETHYLNITROSAMINE: 55-18-5, N-METHYL-N-NITROSOUREA, 684-93-5, 1,2-DIMETHYLHYDRAZINE, 540-73-8, 25 PPM IN DIET FOR 21 WK BEGINNING 2 WK POST CARCINOGEN TREATMENT (STUDY DURATION: 213 D), Route [Inhibitor]: ORAL, Species: MOUSE, Strain/Sex: B6C3F1/FEMALE, Target Tissue: Type of Lesion: LUNG: CARCINOMA, Dose [Carcinogen]: 10 MG/KG BW DEN TWICE ON DAYS 1 AND 21, 120 PPM MNU IN DRINKING WATER DURING WKS 4-9, 20 MG/KG BW DMH 2/WK DURING WKS 4-, Dose [Carcinogen]: 10 MG/KG BW DEN TWICE ON DAYS 1 AND 21, 120 PPM MNU IN DRINKING WATER DURING WKS 4-9, 20 MG/KG BW DMH 2/WK DURING WKS 4-): 0/16 (0%), 0/16 (0%), 0%, not significant | tumour outcome (control, treated, inhibition, significance) (Carcinogen: DIETHYLNITROSAMINE: 55-18-5, N-METHYL-N-NITROSOUREA, 684-93-5, 1,2-DIMETHYLHYDRAZINE, 540-73-8, Carcinogen: DIETHYLNITROSAMINE: 55-18-5, N-METHYL-N-NITROSOUREA, 684-93-5, 1,2-DIMETHYLHYDRAZINE, 540-73-8, 25 PPM IN DIET FOR 21 WK BEGINNING 2 WK POST CARCINOGEN TREATMENT (STUDY DURATION: 213 D), Route [Inhibitor]: ORAL, Species: MOUSE, Strain/Sex: B6C3F1/MALE, Target Tissue: Type of Lesion: LUNG: ADENOMA, Dose [Carcinogen]: 10 MG/KG BW DEN TWICE ON DAYS 1 AND 21, 120 PPM MNU IN DRINKING WATER DURING WKS 4-9, 20 MG/KG BW DMH 2/WK DURING WKS 4-, Dose [Carcinogen]: 10 MG/KG BW DEN TWICE ON DAYS 1 AND 21, 120 PPM MNU IN DRINKING WATER DURING WKS 4-9, 20 MG/KG BW DMH 2/WK DURING WKS 4-): 11/16 (69%), 11/15 (69%), 0%, not significant | tumour outcome (control, treated, inhibition, significance) (Carcinogen: DIETHYLNITROSAMINE: 55-18-5, N-METHYL-N-NITROSOUREA, 684-93-5, 1,2-DIMETHYLHYDRAZINE, 540-73-8, Carcinogen: DIETHYLNITROSAMINE: 55-18-5, N-METHYL-N-NITROSOUREA, 684-93-5, 1,2-DIMETHYLHYDRAZINE, 540-73-8, 25 PPM IN DIET FOR 21 WK BEGINNING 2 WK POST CARCINOGEN TREATMENT (STUDY DURATION: 213 D), Route [Inhibitor]: ORAL, Species: MOUSE, Strain/Sex: B6C3F1/MALE, Target Tissue: Type of Lesion: LUNG: CARCINOMA, Dose [Carcinogen]: 10 MG/KG BW DEN TWICE ON DAYS 1 AND 21, 120 PPM MNU IN DRINKING WATER DURING WKS 4-9, 20 MG/KG BW DMH 2/WK DURING WKS 4-, Dose [Carcinogen]: 10 MG/KG BW DEN TWICE ON DAYS 1 AND 21, 120 PPM MNU IN DRINKING WATER DURING WKS 4-9, 20 MG/KG BW DMH 2/WK DURING WKS 4-): 1/16 (6%), 2/16 (12%), -98%, not significant | tumour outcome (control, treated, inhibition, significance) (Carcinogen: DIETHYLNITROSAMINE: 55-18-5, N-METHYL-N-NITROSOUREA, 684-93-5, 1,2-DIMETHYLHYDRAZINE, 540-73-8, Carcinogen: DIETHYLNITROSAMINE: 55-18-5, N-METHYL-N-NITROSOUREA, 684-93-5, 1,2-DIMETHYLHYDRAZINE, 540-73-8, 50 PPM IN DIET FOR 21 WK BEGINNING 2 WK POST CARCINOGEN TREATMENT (STUDY DURATION: 213 D), Route [Inhibitor]: ORAL, Species: MOUSE, Strain/Sex: B6C3F1/FEMALE, Target Tissue: Type of Lesion: LUNG: ADENOMA, Dose [Carcinogen]: 10 MG/KG BW DEN TWICE ON DAYS 1 AND 21, 120 PPM MNU IN DRINKING WATER DURING WKS 4-9, 20 MG/KG BW DMH 2/WK DURING WKS 4-, Dose [Carcinogen]: 10 MG/KG BW DEN TWICE ON DAYS 1 AND 21, 120 PPM MNU IN DRINKING WATER DURING WKS 4-9, 20 MG/KG BW DMH 2/WK DURING WKS 4-): 6/16 (37%), 8/15 (53%), -42%, not significant | outcome (Carcinogen: DIETHYLNITROSAMINE: 55-18-5, N-METHYL-N-NITROSOUREA, 684-93-5, 1,2-DIMETHYLHYDRAZINE, 540-73-8, Carcinogen: DIETHYLNITROSAMINE: 55-18-5, N-METHYL-N-NITROSOUREA, 684-93-5, 1,2-DIMETHYLHYDRAZINE, 540-73-8, 50 PPM IN DIET FOR 21 WK BEGINNING 2 WK POST CARCINOGEN TREATMENT (STUDY DURATION: 213 D), Route [Inhibitor]: ORAL, Species: MOUSE, Strain/Sex: B6C3F1/FEMALE, Target Tissue: Type of Lesion: LUNG: CARCINOMA, Dose [Carcinogen]: 10 MG/KG BW DEN TWICE ON DAYS 1 AND 21, 120 PPM MNU IN DRINKING WATER DURING WKS 4-9, 20 MG/KG BW DMH 2/WK DURING WKS 4-, Dose [Carcinogen]: 10 MG/KG BW DEN TWICE ON DAYS 1 AND 21, 120 PPM MNU IN DRINKING WATER DURING WKS 4-9, 20 MG/KG BW DMH 2/WK DURING WKS 4-): 0/16 (0%), 0/15 (0%), 0%, not significant | tumour outcome (control, treated, inhibition, significance) (Carcinogen: DIETHYLNITROSAMINE: 55-18-5, N-METHYL-N-NITROSOUREA, 684-93-5, 1,2-DIMETHYLHYDRAZINE, 540-73-8, Carcinogen: DIETHYLNITROSAMINE: 55-18-5, N-METHYL-N-NITROSOUREA, 684-93-5, 1,2-DIMETHYLHYDRAZINE, 540-73-8, 50 PPM IN DIET FOR 21 WK BEGINNING 2 WK POST CARCINOGEN TREATMENT (STUDY DURATION: 213 D), Route [Inhibitor]: ORAL, Species: MOUSE, Strain/Sex: B6C3F1/MALE, Target Tissue: Type of Lesion: LUNG: ADENOMA, Dose [Carcinogen]: 10 MG/KG BW DEN TWICE ON DAYS 1 AND 21, 120 PPM MNU IN DRINKING WATER DURING WKS 4-9, 20 MG/KG BW DMH 2/WK DURING WKS 4-, Dose [Carcinogen]: 10 MG/KG BW DEN TWICE ON DAYS 1 AND 21, 120 PPM MNU IN DRINKING WATER DURING WKS 4-9, 20 MG/KG BW DMH 2/WK DURING WKS 4-): 11/16 (69%), 3/16 (19%), 73%, not significant | tumour outcome (control, treated, inhibition, significance) (Carcinogen: DIETHYLNITROSAMINE: 55-18-5, N-METHYL-N-NITROSOUREA, 684-93-5, 1,2-DIMETHYLHYDRAZINE, 540-73-8, Carcinogen: DIETHYLNITROSAMINE: 55-18-5, N-METHYL-N-NITROSOUREA, 684-93-5, 1,2-DIMETHYLHYDRAZINE, 540-73-8, 50 PPM IN DIET FOR 21 WK BEGINNING 2 WK POST CARCINOGEN TREATMENT (STUDY DURATION: 213 D), Route [Inhibitor]: ORAL, Species: MOUSE, Strain/Sex: B6C3F1/MALE, Target Tissue: Type of Lesion: LUNG: CARCINOMA, Dose [Carcinogen]: 10 MG/KG BW DEN TWICE ON DAYS 1 AND 21, 120 PPM MNU IN DRINKING WATER DURING WKS 4-9, 20 MG/KG BW DMH 2/WK DURING WKS 4-, Dose [Carcinogen]: 10 MG/KG BW DEN TWICE ON DAYS 1 AND 21, 120 PPM MNU IN DRINKING WATER DURING WKS 4-9, 20 MG/KG BW DMH 2/WK DURING WKS 4-): 1/16 (6%), 0/16 (0%), 100%, not significant | tumour outcome (control, treated, inhibition, significance) (Carcinogen: DIETHYLNITROSAMINE, 55-18-5, N-METHYL-N-NITROSOUREA, 684-93-5, 1,2-DIMETHYLHYDRAZINE, 306-37-6, Carcinogen: DIETHYLNITROSAMINE, 55-18-5, N-METHYL-N-NITROSOUREA, 684-93-5, 1,2-DIMETHYLHYDRAZINE, 306-37-6, 25 PPM IN DRINKING WATER FOR 21 WK BEGINNING 2 WK POST CARCINOGEN TREATMENT (STUDY DURATION: 32 WK), Route [Inhibitor]: ORAL, Species: MOUSE, Strain/Sex: B6C3F1/FEMALE, Target Tissue: Type of Lesion: LUNG: ADENOMA, Dose [Carcinogen]: 10 MG/KG BW DEN ON DAYS 11 AND 32 OF AGE, 120 PPM MNU IN DRINKING WATER FROM WKS 4 TO 9, 20 MG/KG BW DMH 2/WK FOR 5 WK, Promoter: NONE USED): 6/16 (38%), 3/16 (19%), 50%, not significant
